Data published in PubChem BioAssay (NCI).
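The compound was tested at five concentrations on cells cultured in 96-well plates, with a 48-hour exposure period. TGI: total growth inhibition.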

What was measured:
Experiment in all cases: NCI tumour cell line growth inhibition, 48 h
[1] = system: NCI-H460 lung
[2] = system: UACC-62 melanoma
[3] = system: HCC-2998 colon
[4] = system: T-47D breast
[5] = system: HOP-92 NSCLC
[6] = system: MALME-3M melanoma
[7] = system: SF-268 CNS
[8] = system: PC-3 prostate
[9] = system: MDA-N
[10] = system: UO-31 renal
[11] = system: MOLT-4 leukemia
[12] = system: KM12 colon
[13] = system: UACC-257 melanoma
[14] = system: OVCAR-4 ovarian
[15] = system: NCI-H226 lung
[16] = system: SNB-19 CNS
[17] = system: IGROV1 ovarian
[18] = system: MDA-MB-231 breast
[19] = system: SK-OV-3 ovarian
[20] = system: TK-10 renal
[21] = system: NCI/ADR-RES ovarian
[22] = system: NCI-H522 lung
[23] = system: NCI-H23 lung
[24] = system: OVCAR-3 ovarian
[25] = system: HCT-15 colon
[26] = system: A498 renal
[27] = system: RXF 393 renal
[28] = system: EKVX NSCLC
[29] = system: HCT-116 colon
[30] = system: HL-60(TB) leukemia
[31] = system: SK-MEL-5 melanoma
[32] = system: BT-549 breast
[33] = system: HOP-62 NSCLC
[34] = system: U251 CNS
[35] = system: SW-620 colon
[36] = system: LOX IMVI melanoma
[37] = system: CCRF-CEM leukemia
[38] = system: HT29 colon
[39] = system: A549 NSCLC
[40] = system: ACHN renal
[41] = system: SR leukemia
[42] = system: SF-539 CNS
[43] = system: 786-0 renal
[44] = system: OVCAR-8 ovarian
[45] = system: SF-295 CNS
[46] = system: SK-MEL-28 melanoma
[47] = system: MDA-MB-435
[48] = system: SK-MEL-2 melanoma
[49] = system: OVCAR-5 ovarian
[50] = system: COLO 205 colon
[51] = system: DU-145 prostate
[52] = system: HS 578T breast
[53] = system: M14 melanoma
[54] = system: MCF7 breast

Measured: TGI

O=CC(O)C(O)C(O)C(O)C(=O)NCCCCCCCCCCCCNC(=O)C(O)C(O)C(O)C(O)C=O (centres undefined)
> 100 µM: all assays above
